Measured values from patent publication US20080085917A1, “7-(2-(4-(3-TRIFLUOROMETHYL-PHENYL)-1,2,3,6-TETRAHYDROPYRID-1-YL)ETHYL)ISOQUINOLINE BESYLATE SALT, PREPARATION AND THERAPEUTIC USE THEREOF” (sanofi-aventis, priority 2005, published 2008).

Legend:
Assay type in all cases: physicochemical
[1] = Water content by thermogravimetric analysis (TGA); details: for Loss in weight / Nature of the solvent: TGA; for Loss in weight: from 25° C., 10° C./min, nitrogen purge; for Nature of the solvent: solvent lost; for Hydration state: from TGA curve
Protocol: The water content of the five above salts was studied by thermogravimetric analysis (TGA).
The TGA tests are carried out in a TA8000 device equipped with a TGA850 module. The temperature calibrations are carried out conventionally using the melting of indium.
The experimental parameters employed were:
Final temperature: 250° C. for the dihydrochloride, 300° C. for the fumarate, 200° C. or 250° C. for the dihydrogensulfate, 250° C. or 300° C. for the dibesylate and the besylate.
The system is purged using nitrogen at a flow rate of 70 ml/min.
The pans used were 70 μl silica pans.

[2] = Chemical stability of salts exposed to heat and moisture, measured by HPLC; details: for Purity after 14 days at 80° C./80% RH: 14 days at 80° C. and 80% relative humidity; for Initial purity: before exposure (baseline of stability study)
Protocol: The chemical stability of the compound of formula (I) in the dihydrochloride, dihydrogensulfate, fumarate, dibenzenesulfonate and monobenzenesulfonate forms was studied.
Each of the five above salts is exposed to heat, to moisture and to light under the conditions below: • 14 days at a temperature of 80° C., • 14 days at a temperature of 80° C. and a relative humidity (RH) level of 80%, • exposure to light of 400 W.Hrs.m^−2.

[3] = Water sorption isotherms (DVS); details: 25° C.
Protocol: The DVS tests are carried out using a DVS-1 system. From 20 to 32 mg of product are used per analysis and the temperature is maintained at 25° C. plus or minus 0.2° C. Nitrogen is used as carrier gas at a flow rate of 100 ml/min in the sample chamber.

Compound | Loss in weight [1] | Nature of the solvent [1] | Purity after 14 days at 80° C. [2] | Purity after 14 days at 80° C./80% RH [2] | Initial purity [2] | Hygroscopicity (sorption isotherms), in words [3] | Hysteresis in sorption/desorption [3] | Hydration state [1] | Water acquired during the sorption cycle ([3]; between 30 and 80% relative humidity)
Fumarate | 0.45 % weight/weight | Solvent + water | 96.7% | 32.4% | 97.9% | weakly hygroscopic |  |  | 
FC(F)(F)c1cccc(C2=CCN(CCc3ccc4ccncc4c3)CC2)c1.O=S(=O)(O)O.O=S(=O)(O)O [Dihydrogensulfate] | 2.06 % weight/weight | Solvent + water | 91.9% | 88.5% | 93.3% | significant acquisition of water | hystereses observed during the desorption |  | 
FC(F)(F)c1cccc(C2=CCN(CCc3ccc4ccncc4c3)CC2)c1.O=S(=O)(O)c1ccccc1 [Besylate, 7-(2-(4-(3-(trifluoromethyl)phenyl)-1,2,3,6-tetrahydropyrid-1-yl)ethyl)isoquinoline besylate] | 0.11 % weight/weight | Water | 97.9% | 96.5% | 98.2% | least hygroscopic of all the salts tested | No hysteresis | not hydrated | 
FC(F)(F)c1cccc(C2=CCN(CCc3ccc4ccncc4c3)CC2)c1.O=S(=O)(O)c1ccccc1.O=S(=O)(O)c1ccccc1 [Dibesylate] | 0.72 % weight/weight | Water | 97.5% | 96.2% | 97.5% | significant acquisition of water | hystereses observed during the desorption |  | 
Cl.Cl.FC(F)(F)c1cccc(C2=CCN(CCc3ccc4ccncc4c3)CC2)c1 [Dihydrochloride] | 11.0 % weight/weight | Water | 95.6% | 92.9% | 97.0% |  | weak hysteresis | three water molecules per mole of anhydrous salt | 1.9 % weight/weight
